For this experiment, the system named is B16-OVA melanoma. The experiment can be described thus: Lung metastasis model. The following applies: day 20 after tail vein injection of B16-OVA. It is filed as in vivo, mice. As to the method:
Furthermore, a lung metastasis model was selected to evaluate the prevention of lung colonization of melanoma with nanocomposites (FIG. 21a). The administration was similar to that of the tumor model, except that 5×10^5 B16-OVA cells per mouse were injected via tail vein 7 days after the end of the last administration. The mice were dissected on day 20 after injection, the lungs of the mice were removed, and the lungs were washed with Fekete's eluent (70 mL of alcohol, 10 mL of formaldehyde, 5 mL of glacial acetic acid, 15 mL of water). After decoloration, lung tumor nodules were counted. Finally, all tissues were sent to Univ company for tissue section and H&E staining analysis.

Consider “Ac-WMβASIINFEKL (WMXSIINFEKL; N-terminal acetyl; beta-alanine; N-terminal Acetylation and Xaa represents a ??-alanine isomer of alanine at the 3AA position; (3)..(3) Xaa is ??-alanine (beta-alanine), an isomer of Alanine) [OVA]”, for which the “H&E staining of lung tissue: melanoma cell infestation” value is recorded as “lung cells infected with melanoma cells were also found”.

The record behind these values is patent publication US20260263573A1, “Tumor Immunotherapy” (PingShan Translational Medicine Center, Shenzhen Bay …, priority 2022, published 2026).
